Data from patent publication US11364242B2, “Treatment agents for inhibiting HIV and cancer in HIV infected patients” (UNIVERSITY OF MARYLAND, BALTIMORE, priority 2015, dated 2022).
Read-outs that look alike come from different tables or passages of the source.

Key:
HIV-1 BaL = test: Antiretroviral potency with and without INK128 in PBLs infected with HIV BaL; format: cell-based; conditions: Human immunodeficiency virus 1, BAL, PBMC, PBMCs, two donors
Method: PBLs were separated from buffy coats by density centrifugation over Ficoll-Hypaque (Sigma™), and activated by culture in the presence of 1 μg/mL anti-human CD3 antibody (clone x35, Fisher Scientific™) and 2 μg/mL anti-human CD28 antibody (Clone CD28.6, eBioscience™) for 3 days. Activated cells were infected by incubation with virus at a multiplicity of infection (MOI) of 0.001 for 2 hours. Infected cells were washed three times with PBS and cultured in 5% CO2 at 37° C., in RPMI/10% FBS supplemented with 100 units/mL IL-2 (Roche™) and antiviral drugs, in 96-well flat-bottom plates at a density of […] PBLs per 200 μL. Following 3 d of culture, half of the medium was replaced with fresh medium containing IL-2 and antiviral drugs. On day 7, viral replication was measured by p24 ELISA (Coulter) in culture supernatants and cell viability was measured by MTT assays.
Available ARTs target the HIV lifecycle steps of entry, reverse transcription, integration, and maturation. […] In addition, by targeting virus transcription, INK128 could have favorable interactions with inhibitors of reverse transcription (RTIs), integration (Hs), and protease (PIs). […] We conducted these assays in activated PBLs infected with R5 HIV BaL and treated with various dilutions of Maraviroc (CCR5 antagonist), Efavirenz (RTI), Raltegravir (II), and Indinavir (PI). INK128 was used at low concentrations (<EC50) to better detect changes in ART potency (Table 7).
Prism software. Data are from 2 experiments, each with a different donor.

HIV-1 = test: HIV production in PHA activated PBMCs, p24 ELISA day 7; conditions: p24 day 7
Method: PHA activated PBMCs were infected with HIV-1 for 2 hours. Infected cells were washed to remove non-adsorbed virus, and plated in culture medium containing IL-2 and various dilutions of Torin-2. Cultures were evaluated for HIV production by measuring HIV p24 levels in the culture supernatants by ELISA (FIG. 9A). Also on day 7, cell viability was measured by MTT assays (FIG. 9B) according to an embodiment.
PHA activated PBMCs were infected with HIV-1 for 2 hours. Infected cells were washed to remove non-adsorbed virus, and plated in culture medium containing IL-2 and various dilutions of Torin-2. On day 3, fresh medium with fresh drug was added to the cultures. On day 7, cultures were evaluated for HIV production by measuring HIV p24 levels in the culture supernatants by ELISA (FIG. 9A). Also on day 7, cell viability was measured by MTT assays (FIG. 9B)/

[1] = +3 nM INK128, read-out: EC50 (geometric mean)
[2] = +10 nM INK128, read-out: EC50 (geometric mean)
[3] = No INK128, read-out: EC50 (geometric mean)

SMILES | EC50 (HIV-1 BaL; [1]) [nM] | EC50 (HIV-1 BaL; [2]) [nM] | EC50 (HIV-1 BaL; [3]) [nM] | also measured
O=C1Nc2ccc(Cl)cc2[C@@](C#CC2CC2)(C(F)(F)F)O1 [EFV] | 0.51 | 0.51 | 0.52 | 
CC(C)(C)NC(=O)[C@@H]1CN(Cc2cccnc2)CCN1C[C@@H](O)C[C@@H](Cc1ccccc1)C(=O)N[C@H]1c2ccccc2C[C@H]1O [IND] | 3.14 | 3 | 3.84 | 
Cc1nnc(C(=O)NC(C)(C)c2nc(C(=O)NCc3ccc(F)cc3)c(O)c(=O)n2C)o1 [RAL] |  |  |  | EC50 (HIV-1 BaL; read-out: EC50 (geometric mean), +3 nM INK128): 0.81 nM; EC50 (HIV-1 BaL; read-out: EC50 (geometric mean), +10 nM INK128): 0.57 nM; EC50 (HIV-1 BaL; read-out: EC50 (geometric mean), No INK128): 0.65 nM
Nc1ccc(-c2ccc3ncc4ccc(=O)n(-c5cccc(C(F)(F)F)c5)c4c3c2)cn1 [Torin-2, 9-(6-Amino-3-pyridinyl)-1-[3-(trifluoromethyl)phenyl]-benzo[h]-1,6-naphthyridin-2(1H)-one] |  |  |  | cell toxicity (PBMCs): absence of cell toxicity; HIV inhibition in vitro (HIV-1): inhibits HIV in vitro
